Experimental data taken from US8802114B2, “Pharmaceutical compositions of iron for oral administration” (priority 2011, dated 2014).

Experiments:
[1] = Sodium caprate (C10) solution compatibility of iron compounds, with centrifugation test for precipitation; type: physicochemical; conditions: in 55 mg/mL sodium caprate (C10)
Method: A test for precipitation was carried out. The solution formulations were centrifuged initially at 1000 rpm for 5 minutes. […] They were further centrifuged at 5000 rpm for 5 minutes.

[2] = Solution stability of sodium EDTA Fe+3 chelate with sodium caprate (visual observation); type: physicochemical; conditions: sodium caprate 55 mg/mL

Compound	Sodium caprate solution compatibility (observation) [1]	Compatibility with sodium caprate formulation (pre-formulation) [2]
NCC(=O)[O-].NCC(=O)[O-].[Fe+2] [Ferrous Bisglycinate (Ferrochel), Ferrous Bisglycinate]	precipitates in the presence of C10	
Ferrous Gluconate [Ferrous Gluconate FCC/USP*]	C10 incompatibility	
O=C(O)CN(CCN(CC(=O)O)CC(=O)O)CC(=O)O.[Fe+3].[Na+] [sodium EDTA iron chelate, ethylenediaminetetraacetic acid ferric sodium]		no gross incompatibility
